Experimental data published in ChEMBL document CHEMBL1201862, “PubChem BioAssay data set” (2004).
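Compound exposure: 48 hours, 5 concentrations, 96-well plates. The concentration for 50% growth inhibition is given as GI50.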 Calls of active or inactive are those of the source. Rule as the data show it: active = GI50 up to about 1.1 µM and inactive = higher. Where a SMILES comes first, the peptide text is derived from it. [ ]: non-standard residue; d: D form. The star is where a group is joined. ξ: configuration not given here. ξPhe(4-NO2) = NC(Cc1ccc([N+](=O)[O-])cc1)C(=O)O; Boc = CC(C)(C)OC(=O)*; OBn = c1ccc(CO*)cc1

Key:
Assay in all cases: inhibition of tumour cell growth, NCI panel, 48 h
[1] = system: ACHN
[2] = system: KM12
[3] = system: SN12C
[4] = system: BT-549
[5] = system: HT-29
[6] = system: A498
[7] = system: SNB-19
[8] = system: HCT-15
[9] = system: HCT-116
[10] = system: EKVX
[11] = system: SNB-75
[12] = system: NCI-H226
[13] = system: SK-MEL-5
[14] = system: K562
[15] = system: PC-3
[16] = system: HOP-92
[17] = system: OVCAR-5
[18] = system: SF-539
[19] = system: RPMI-8226

Structure (SMILES) | GI50 [1] | GI50 [2] | GI50 [3] | GI50 [4] | GI50 [5] | GI50 [6] | GI50 [7] | GI50 [8] | GI50 [9] | GI50 [10] | GI50 [11] | GI50 [12] | GI50 [13] | GI50 [14] | GI50 [15] | GI50 [16] | GI50 [17] | GI50 [18] | GI50 [19]
c1cc(-c2ccc(-c3ccc(-c4ccc(-c5ccncc5)o4)cc3)o2)ccn1 | 24.6 µM (inactive) | 15.3 µM (inactive) | 22.4 µM (inactive) | 15.7 µM (inactive) | 11.8 µM (inactive) | > 100 µM (inactive) | 18.5 µM (inactive) | 15.1 µM | 16.1 µM (inactive) | 22.4 µM (inactive) | 18.9 µM (inactive) | 27.4 µM (inactive) | 13.2 µM (inactive) | 15.7 µM (inactive) | 18.7 µM (inactive) | 30.5 µM (inactive) | 24.9 µM (inactive) | – | –
Cc1cccc(/C=N/NC(=S)N2CCCC2)n1 | 0.202 µM (active) | – | 0.247 µM (active) | 1.76 µM (inactive) | 0.0528 µM (active) | 0.347 µM (active) | 2.82 µM (inactive) | 0.138 µM | 0.069 µM (active) | 0.304 µM (active) | 2.95 µM (inactive) | 2.41 µM (inactive) | 0.259 µM (active) | 0.2 µM (active) | 0.346 µM (active) | 1.65 µM (inactive) | 0.132 µM (active) | 0.479 µM (active) | –
COc1ccc2nc3cc(Cl)ccc3c(NCCCCCC(=O)NC(COc3cnc4c(ccc5cccnc54)c3)COc3cnc4c(ccc5cccnc54)c3)c2c1 | 36.6 µM (inactive) | 5.92 µM (inactive) | 22.9 µM (inactive) | 10.5 µM (inactive) | 5.45 µM (inactive) | 23.2 µM (inactive) | 13.6 µM (inactive) | > 100 µM | 3.94 µM (inactive) | 22.8 µM (inactive) | 0.0313 µM (active) | 4.73 µM (inactive) | – | 3.43 µM (inactive) | 13.9 µM (inactive) | > 100 µM (inactive) | 24.1 µM (inactive) | 10.9 µM (inactive) | 5.65 µM (inactive)
NC1(C(=O)O)CCCC1C(=O)O (configuration not stated) | > 100 µM (inactive) | > 100 µM (inactive) | > 100 µM (inactive) | > 100 µM (inactive) | > 100 µM (inactive) | > 100 µM (inactive) | > 100 µM (inactive) | > 100 µM | > 100 µM (inactive) | > 100 µM (inactive) | > 100 µM (inactive) | – | > 100 µM (inactive) | > 100 µM (inactive) | > 100 µM (inactive) | > 100 µM (inactive) | > 100 µM (inactive) | > 100 µM (inactive) | > 100 µM (inactive)
COc1ccc(N2C(=O)C3c4[nH]c5ccc(F)cc5c4C4CCC(c5ccccc5)CC4C3C2=O)cc1 (configuration not stated) | 20.3 µM (inactive) | 20.7 µM (inactive) | 26.2 µM (inactive) | 17.3 µM (inactive) | 16 µM (inactive) | 15.7 µM (inactive) | 11.1 µM (inactive) | 19.7 µM | 20.7 µM (inactive) | 24.3 µM (inactive) | 12.5 µM (inactive) | 54.8 µM (inactive) | 21.6 µM (inactive) | 3.44 µM (inactive) | 14.2 µM (inactive) | 14.5 µM (inactive) | 18.3 µM (inactive) | – | 32.8 µM (inactive)
CC(C)(C)OC(=O)NC(Cc1ccc([N+](=O)[O-])cc1)C(=O)NCC(=O)OCc1ccccc1 (configuration not stated) (Boc-[ξPhe(4-NO2)]-Gly-OBn) | 23 µM (inactive) | 31.4 µM (inactive) | 20.7 µM (inactive) | 25.7 µM (inactive) | 25.5 µM (inactive) | 38.6 µM (inactive) | 55.3 µM (inactive) | 19.4 µM | 26.5 µM (inactive) | > 100 µM (inactive) | 18.4 µM (inactive) | 26.7 µM (inactive) | 19.4 µM (inactive) | 15 µM (inactive) | 17.2 µM (inactive) | 34 µM (inactive) | > 100 µM (inactive) | – | 21 µM (inactive)
O=C1CC(c2cccc(F)c2)Nc2cc3c(cc21)OCO3 (configuration not stated) | 0.0649 µM (active) | 0.0463 µM (active) | 0.0509 µM (active) | > 10 µM (inactive) | 0.0237 µM (active) | < 0.01 µM (active) | 0.0365 µM (active) | 0.0394 µM | 0.0533 µM (active) | < 0.01 µM (active) | – | 0.027 µM (active) | 0.0224 µM (active) | < 0.01 µM (active) | 0.0301 µM (active) | 0.531 µM (active) | 0.054 µM (active) | 0.0293 µM (active) | < 0.01 µM (active)
COc1cc2c(cc1C[C@H]1[C@@H]3C[C@H]4c5c(c6ccccc6n5C)C[C@@H]([C@@H]3CO[C@]1(C)OC(C)=O)N4C)c1c(n2C)C2C[C@H]3C(C(C)=O)=COC[C@H]3[C@H](C1)N2C | 3.87 µM (inactive) | 2 µM (inactive) | 6.24 µM (inactive) | 3.29 µM (inactive) | 1.53 µM (inactive) | 12.3 µM (inactive) | 5.2 µM (inactive) | 3.13 µM | 2.5 µM (inactive) | 0.403 µM (active) | – | 5.46 µM (inactive) | 3.54 µM (inactive) | 6.03 µM (inactive) | 0.462 µM (active) | 4.98 µM (inactive) | 4.35 µM (inactive) | 2.84 µM (inactive) | 0.764 µM (active)
NC1CCCCC1NCCNC1CCCCC1N (configuration not stated) | > 100 µM (inactive) | > 100 µM (inactive) | > 100 µM (inactive) | > 100 µM (inactive) | 17.7 µM (inactive) | > 100 µM (inactive) | > 100 µM (inactive) | > 100 µM | 47.5 µM (inactive) | > 100 µM (inactive) | – | > 100 µM (inactive) | > 100 µM (inactive) | 49.2 µM (inactive) | > 100 µM (inactive) | 41.5 µM (inactive) | 20.9 µM (inactive) | > 100 µM (inactive) | > 100 µM (inactive)
OCC1OC(O[C@H]2CN3[C@H](O)[C@@H](O)[C@H](O)[C@H]3C2O)C(O)C(O)C1O (some centres not stated) | > 100 µM (inactive) | > 100 µM (inactive) | > 100 µM (inactive) | > 100 µM (inactive) | > 100 µM (inactive) | > 100 µM (inactive) | > 100 µM (inactive) | > 100 µM | > 100 µM (inactive) | > 100 µM (inactive) | – | > 100 µM (inactive) | > 100 µM (inactive) | > 100 µM (inactive) | > 100 µM (inactive) | > 100 µM (inactive) | > 100 µM (inactive) | > 100 µM (inactive) | > 100 µM (inactive)
COc1ccc(C)cc1NC(=S)C#N | 30.3 µM (inactive) | 36.2 µM (inactive) | > 100 µM (inactive) | 35.2 µM (inactive) | 30.8 µM (inactive) | > 100 µM (inactive) | 28.9 µM (inactive) | 27.5 µM | > 100 µM (inactive) | – | 25.1 µM (inactive) | 27.5 µM (inactive) | > 100 µM (inactive) | > 100 µM (inactive) | 26.4 µM (inactive) | > 100 µM (inactive) | 29.6 µM (inactive) | 33.1 µM (inactive) | 74.8 µM (inactive)
COc1ccc2[nH]c3c(c2c1)CCc1c(OC)cccc1-3 | > 100 µM (inactive) | > 100 µM (inactive) | > 100 µM (inactive) | > 100 µM (inactive) | > 100 µM (inactive) | > 100 µM (inactive) | > 100 µM (inactive) | > 100 µM | > 100 µM (inactive) | > 100 µM (inactive) | 70 µM (inactive) | > 100 µM (inactive) | > 100 µM (inactive) | 53.6 µM (inactive) | > 100 µM (inactive) | > 100 µM (inactive) | > 100 µM (inactive) | – | 51.9 µM (inactive)
CN(CCc1ccc(Cl)c(Cl)c1)[C@H]1CCCC[C@H]1N1CCCC1 | > 100 µM (inactive) | > 100 µM (inactive) | > 100 µM (inactive) | > 100 µM (inactive) | > 100 µM (inactive) | > 100 µM (inactive) | > 100 µM (inactive) | > 100 µM | > 100 µM (inactive) | > 100 µM (inactive) | – | > 100 µM (inactive) | > 100 µM (inactive) | > 100 µM (inactive) | > 100 µM (inactive) | > 100 µM (inactive) | > 100 µM (inactive) | – | > 100 µM (inactive)
CCCN1C(=O)/C(=C\c2ccc(OC)c(OC)c2)S/C1=N\c1ccccc1 | > 100 µM (inactive) | > 100 µM (inactive) | > 100 µM (inactive) | 87.9 µM (inactive) | > 100 µM (inactive) | 38.3 µM (inactive) | 27.5 µM (inactive) | > 100 µM | > 100 µM (inactive) | 67.9 µM (inactive) | – | > 100 µM (inactive) | > 100 µM (inactive) | > 100 µM (inactive) | > 100 µM (inactive) | 50.1 µM (inactive) | > 100 µM (inactive) | 24.7 µM (inactive) | > 100 µM (inactive)
CCCCCCCCOC(=O)C12Oc3ccc(-c4ccc5c(c4O)C(=O)C4=C(O)CC(C)C(O)C4(C(=O)OCCCCCCCC)O5)c(O)c3C(=O)C1=C(O)CC(C)C2O (configuration not stated) | 5.61 µM (inactive) | 10.8 µM (inactive) | 27.7 µM (inactive) | 9.59 µM (inactive) | 27.2 µM (inactive) | 23.5 µM (inactive) | 8.85 µM (inactive) | 25 µM | 7.11 µM (inactive) | 28.5 µM (inactive) | 4.99 µM (inactive) | 33.7 µM (inactive) | 14.7 µM (inactive) | 2.93 µM (inactive) | 23.2 µM (inactive) | 8.45 µM (inactive) | 24 µM (inactive) | 4.21 µM (inactive) | –
